From PMC7892954, “In vivo Pharmacokinetic Drug-Drug Interaction Studies Between Fedratinib and Antifungal Agents Based on a Newly Developed and Validated UPLC/MS-MS Method” (Frontiers in Pharmacology, 2021)
Like-named read-outs stand apart in the source and are kept apart here.

Tests used:
[1] = DDI study: pharmacokinetics of fedratinib in rats with or without antifungal drugs; format: in vivo, Sprague-Dawley (SD) rats; conditions: for AUC(0-inf) / AUC(0-t) / Cmax / Tmax / half-life / CL/F / MRT last / MRT inf: male, Sprague-Dawley, rat, plasma, po, 40 mg/kg, 40 mg/kg fedratinib oral gavage, n = 6, Mean ± SD; for CL/F: read-out: CLz/F (converted); for MRT last: read-out: MRT0→t; for MRT inf: read-out: MRT0→∞
Excerpt: The UPLC-MS/MS procedures were developed and validated to detect fedratinib concentration in plasma to support an investigational study in healthy male Sprague-Dawley (SD) rats (weighing 200 ± 20 g), which were purchased from Laboratory Animal Center of Wenzhou Medical University (Wenzhou, China). The protocols and procedures of the animal experiment were checked in accordance with the regulations defined by Wenzhou Medical University Animal Care and Use Committee (wydw 2018-0002). Before experiment, rats were housed in the environmentally controlled feeding room, and had free access to the water and food.
After 30 min, each rat was administered 40 mg/kg fedratinib by oral gavage. Then, at the time points of 0, 0.333, 0.667, 1, 2, 4, 6, 9, 12, 24, and 48 h, heparinized 1.5 ml polythene tubes were used to collect the blood samples with approximate volume of 0.3 ml. Subsequently, plasma sample (100 µL) was separated and gained after centrifugation of the whole blood samples at room temperature for 10 min with the speed of 4,000 g, and all the plasma samples were placed and held at −80 °C prior to analysis.
Drug and Statistics (DAS) 2.0 software (Shanghai University of Traditional Chinese Medicine, China) was used to analysis the main pharmacokinetic parameters of fedratinib in rats through non-compartmental approach. The comparisons of the main pharmacokinetic parameters of different groups were conducted in one-way analysis of variance equipped with the Dunnett’s test by Statistical Package for the Social Sciences (SPSS Inc., Chicago, IL, United States) version 17.0 software. In any case, if the value of p was below 0.05, it was deemed to be statistically significant.

[2] = Stability of fedratinib in rat plasma under different conditions (UPLC-MS/MS); format: in vitro ADME; conditions: for Stability RE (%): n = 5
Procedure: The stability of the analyte in rat plasma under various conditions at LQC and HQC concentration levels (n = 5) was assessed, which were subjected to at room temperature for about 2 h, in the auto-sampler for 6 h at 10 °C prior to analysis, three freeze-thaw cycles (−80 °C to room temperature), and also storage at −80 °C for 21 days. The stability results of this assay in rat plasma should be acceptable when five replicates of QC samples at LQC and HQC concentrations were evaluated and compared with the real concentrations.

[3] = healthy volunteers, 2015, cited from earlier work
[4] = set-up: method as in Ogasawara et al., 2020; conditions: a strong CYP3A4 inhibitor, ref Ogasawara et al., 2020; cited from earlier work
[5] = 20 mg/kg antifungal 30 min before 40 mg/kg fedratinib oral
[6] = Group A: control (0.5% CMC-Na) 30 min before
[7] = Group B: 20 mg/kg isavuconazole 30 min before
[8] = Group C: 20 mg/kg posaconazole 30 min before
[9] = Group D: 20 mg/kg fluconazole 30 min before
[10] = Group E: 20 mg/kg itraconazole 30 min before

## CC[C@@H]([C@H](C)O)n1ncn(-c2ccc(N3CCN(c4ccc(OC[C@@H]5CO[C@@](Cn6cncn6)(c6ccc(F)cc6F)C5)cc4)CC3)cc2)c1=O [posaconazole]
[1]; [5]
  Order of inhibitory effect on fedratinib metabolism: fluconazole > itraconazole > isavuconazole > posaconazole

## C[C@@H](c1nc(-c2ccc(C#N)cc2)cs1)[C@](O)(Cn1cncn1)c1cc(F)ccc1F [isavuconazole]
[1]; [5]
  Inhibitory effect on fedratinib metabolism: inhibitory effect on fedratinib metabolism to a certain extent
  Order of inhibitory effect on fedratinib metabolism: fluconazole > itraconazole > isavuconazole > posaconazole

## CCC(C)n1ncn(-c2ccc(N3CCN(c4ccc(OCC5COC(Cn6cncn6)(c6ccc(Cl)cc6Cl)O5)cc4)CC3)cc2)c1=O (stereo not drawn) [itraconazole]
[1]; [5]
  Order of inhibitory effect on fedratinib metabolism: fluconazole > itraconazole > isavuconazole > posaconazole

## Cc1cnc(Nc2ccc(OCCN3CCCC3)cc2)nc1Nc1cccc(S(=O)(=O)NC(C)(C)C)c1 [Fedratinib]
[1]; fedratinib co-administrated with posaconazole (Group C)
  Key pharmacokinetic parameters (AUC0→t, AUC0→∞, MRT0→t, MRT0→∞, t1/2, Tmax, CLz/F, Cmax) compared with control Group A: no significant differences
[1]; [6]
  AUC(0-inf): 2150 ± 396 ng·h/mL
  AUC(0-t): 2010 ± 309 ng·h/mL
  Cmax: 101 ± 12.9 ng/mL
  Tmax: 5.43 ± 0.98 h
  half-life: 11.1 ± 2.72 h
  CL/F: 320 mL/min/kg
  MRT last: 14.4 ± 1.41 h
  MRT inf: 15.6 ± 1.65 h
[1]; [7]
  AUC(0-inf): 2720 ± 427 ng·h/mL
  AUC(0-t): 2590 ± 406 ng·h/mL
  Cmax: 123 ± 17.2 ng/mL
  Tmax: 6.4 ± 1.34 h
  half-life: 11.1 ± 2.9 h
  CL/F: 247 mL/min/kg
  MRT last: 14.9 ± 0.87 h
  MRT inf: 15.5 ± 1.34 h
[1]; [8]
  AUC(0-inf): 2510 ± 260 ng·h/mL
  AUC(0-t): 2320 ± 202 ng·h/mL
  Cmax: 98.1 ± 16.6 ng/mL
  Tmax: 6 ± 1.08 h
  half-life: 11.8 ± 2.9 h
  CL/F: 277 mL/min/kg
  MRT last: 14.3 ± 1.21 h
  MRT inf: 14.6 ± 1.32 h
[1]; [9]
  AUC(0-inf): 3890 ± 680 ng·h/mL
  AUC(0-t): 3800 ± 653 ng·h/mL
  Cmax: 232 ± 33.1 ng/mL
  Tmax: 7.8 ± 1.64 h
  half-life: 10.9 ± 2.38 h
  CL/F: 176 mL/min/kg
  MRT last: 13.4 ± 1.3 h
  MRT inf: 13.9 ± 1.36 h
[1]; [10]
  AUC(0-inf): 3320 ± 383 ng·h/mL
  AUC(0-t): 3130 ± 317 ng·h/mL
  Cmax: 187 ± 22.2 ng/mL
  Tmax: 7.2 ± 1.64 h
  half-life: 10.2 ± 3.39 h
  CL/F: 204 mL/min/kg
  MRT last: 14.5 ± 1.95 h
  MRT inf: 15.2 ± 2.1 h
[2]; 1.5 ng/ml, Auto-sampler 10°C, 6 h
  Stability RE (%): 8.3%
[2]; 1.5 ng/ml, Room temperature, 2 h
  Stability RE (%): 14.1%
[2]; 1.5 ng/ml, Three freeze-thaw (−80 °C to room temperature)
  Stability RE (%): −4.6%
[2]; 1.5 ng/ml, −80°C, 21 days
  Stability RE (%): 2.7%
[2]; 400 ng/ml, Auto-sampler 10°C, 6 h
  Stability RE (%): 11.4%
[2]; 400 ng/ml, Room temperature, 2 h
  Stability RE (%): 10.3%
[2]; 400 ng/ml, Three freeze-thaw (−80 °C to room temperature)
  Stability RE (%): 12.5%
[2]; 400 ng/ml, −80°C, 21 days
  Stability RE (%): 14.2%
[2]; LQC and HQC, all four storage conditions
  Deviation from nominal concentrations (stability): < 15%
[3]; 40 mg pantoprazole once daily with a single dose of 500 mg fedratinib, ref Xu et al.
  Impact of pantoprazole on the pharmacokinetics of fedratinib: no significantly impact
[3]; ref Zhang et al.
  Effect of intake of food on pharmacokinetics and bioavailability of fedratinib: slightly affect
[4]
  Effect of ketoconazole on systemic exposure of fedratinib: increases the systemic exposure of fedratinib
